Patent EP0603240B1, “SAFENING HERBICIDAL PYRAZOLYLSULFONYLUREAS” (priority 1991, dated 1993)

Key:
Assay type in all cases: in vivo
[1] = test system: barnyardgrass (Echinochloa crusgalli); test: Example 5, Procedure I: Herbicide No. 1 + alachlor (No. 7) with Antidote Nos. 15 and 16
Protocol: (§1) Containers were filled and compacted with a fumigated silt loam top soil to a depth of about 1.3 cm from the top of the container. A first container was designated as an untreated control, a second container was designated as a herbicide control, and a third container was designated as a herbicide + antidote test container. Each of the containers was seeded with a crop species. A measured amount of herbicide dispersed or dissolved in acetone was applied to a measured quantity of soil. To this same quantity of soil treated with herbicide, there was added a measured amount of antidote dispersed or dissolved in acetone. The quantity of soil treated with the herbicide and antidote was thoroughly mixed to incorporate the herbicide and antidote in the soil uniformly. The seed bed in the third container of soil was covered with the soil treated with the herbicide and antidote and the container was leveled. For each test series, the seed beds of the first and second containers were likewise covered by soil layers. the cover layer of the first container was not treated with herbicide or antidote.
(§2) The containers were then placed on a bench in a greenhouse and sub-irrigated as required for the duration of the test. […] Plant response is measured in terms of percent injury. Antidote efficacy is indicated as the difference in plant injury by the herbicide(s) without the antidote and with the antidote.
(§3) In the series of greenhouse tests described below, for routine screening purposes the herbicide/antidote compositions were tested in crop/weed combinations involving corn as the crop and either or both of the weeds barnyardgrass (Echinochloa crusgalli), a monocotyledonous weed, and velvetleaf (Abutilon theophrasti), a dicotyledonous weed. In the tables below, these weeds are indicated by the symbols "BYG" and "VL", respectively.
(§4) This example describes tests with Antidote Nos. 15 and 16 to safen Herbicide No. 1 according to Procedure I using corn and the weeds barnyardgrass and velvetleaf as the test plants.
(§5) In the tests described in this example, the same procedure described in Example 4 was performed simultaneously therewith and under the same conditions, except that a co-herbicide, alachlor, was included in the same composition with Herbicide No. 1 and Antidote Nos. 15 and 16. Alachlor (Herbicide No. 7 herein) is the active ingredient in the commercial product LASSO® herbicide.

[2] = test system: velvetleaf (Abutilon theophrasti); test: as above
Protocol: as §1, §2, §3, §4, §5

[3] = test system: barnyardgrass (Echinochloa crusgalli); test: Example 3, Procedure I: antidotes against Herbicide No. 1
Outline: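 Corn seeded in silt loam in the greenhouse, covered with a soil layer into which herbicide and antidote (each in acetone) were incorporated, with untreated and herbicide-only controls; sub-irrigated. Herbicide No. 1 at 4.48 down to 0.56 kg/ha. Barnyardgrass response scored as percent injury, with antidote efficacy as the injury difference without vs with antidote.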

[4] = test system: corn; test: Example 1, greenhouse Procedure II: antidotes against Herbicide No. 1
Protocol: as §1, §2
(§6) This procedure is the same as Procedure I, but modified in the manner that after incorporation of the chemicals (herbicide and antidote) the containers with the covered seedbed were treated with an initial overhead irrigation equivalent to 0.6 cm rainfall, then subsequently sub-irrigated as required on greenhouse benches.
as §3
This example was designed to investigate the antidotal efficacy of a plurality of antidotes against Herbicide No. 1 in corn in the presence of barnyard grass and velvetleaf. The antidotes used in this example were Antidote Nos. 1-10, 12, 13 and 15.
The test in this example was conducted as described above for Procedure II. The antidotes were applied to the soil cover layer by pipet after spraying on the herbicide followed by incorporation and simulated rain.

[5] = test system: corn; test: Example 16, Procedure II: Herbicide No. 1 + EPTC (No. 4, EPTAM) with antidotes; details: Herbicide No.1 1.12 kg/ha + EPTAM 6.72 kg/ha; antidote 2.24 kg/ha
Protocol: as §1, §2, §6
The test procedure used in these experiments was that of Procedure II described above. The antidotes were applied to a soil cover layer by pipet after spraying the herbicides onto the soil, followed by incorporation and overhead irrigation. […]

[6] = test system: barnyardgrass (Echinochloa crusgalli); test: Example 4, Procedure I: Antidote Nos. 15 and 16 against Herbicide No. 1
[7] = Herbicide No.1 4.48 + No.7 0.56 kg/ha + antidote 0.56 kg/ha
[8] = Herbicide No.1 4.48 + No.7 0.56 kg/ha + antidote 2.24 kg/ha
[9] = Herbicide No.1 4.48 + No.7 2.24 kg/ha + antidote 0.56 kg/ha
[10] = Herbicide No.1 4.48 + No.7 2.24 kg/ha + antidote 2.24 kg/ha
[11] = Herbicide No.1 6.72 + No.7 0.56 kg/ha + antidote 0.56 kg/ha
[12] = Herbicide No.1 6.72 + No.7 0.56 kg/ha + antidote 2.24 kg/ha
[13] = Herbicide No.1 6.72 + No.7 2.24 kg/ha + antidote 0.56 kg/ha
[14] = Herbicide No.1 6.72 + No.7 2.24 kg/ha + antidote 2.24 kg/ha
[15] = Herb. No. 1 0.56 kg/ha + antidote 2.24 kg/ha
[16] = Herb. No. 1 4.48 kg/ha + antidote 0.56 kg/ha
[17] = Herb. No. 1 4.48 kg/ha + antidote 2.24 kg/ha

## CC1(C)OC(c2ccco2)CN1C(=O)C(Cl)Cl (stereo not drawn) [compound 15]
[1]; [7]
  % Injury BYG: 99%
[1]; [8]
  % Injury BYG: 95%
[1]; [9]
  % Injury BYG: 100%
[1]; [10]
  % Injury BYG: 100%
[1]; [11]
  % Injury BYG: 99%
[1]; [12]
  % Injury BYG: 99%
[1]; [13]
  % Injury BYG: 100%
[1]; [14]
  % Injury BYG: 100%
[2]; [7]
  % Injury VL: 95%
[2]; [8]
  % Injury VL: 95%
[2]; [9]
  % Injury VL: 98%
[2]; [10]
  % Injury VL: 95%
[2]; [11]
  % Injury VL: 95%
[2]; [12]
  % Injury VL: 99%
[2]; [13]
  % Injury VL: 99%
[2]; [14]
  % Injury VL: 95%
[3]; Herb. No. 1 0.56 kg/ha + antidote 0.56 kg/ha
  % Injury BYG: 50%
[3]; [15]
  % Injury BYG: 35%
[3]; Herb. No. 1 0.56 kg/ha + antidote 8.96 kg/ha
  % Injury BYG: 10%
[3]; Herb. No. 1 1.12 kg/ha + antidote 0.56 kg/ha
  % Injury BYG: 75%
[3]; Herb. No. 1 1.12 kg/ha + antidote 2.24 kg/ha
  % Injury BYG: 60%
[3]; Herb. No. 1 1.12 kg/ha + antidote 8.96 kg/ha
  % Injury BYG: 60%
[3]; Herb. No. 1 2.24 kg/ha + antidote 0.56 kg/ha
  % Injury BYG: 60%
[3]; Herb. No. 1 2.24 kg/ha + antidote 2.24 kg/ha
  % Injury BYG: 70%
[3]; Herb. No. 1 2.24 kg/ha + antidote 8.96 kg/ha
  % Injury BYG: 50%
[3]; [16]
  % Injury BYG: 75%
[3]; [17]
  % Injury BYG: 70%
[3]; Herb. No. 1 4.48 kg/ha + antidote 8.96 kg/ha
  % Injury BYG: 80%
[3]; antidote 8.96 kg/ha alone, no herbicide
  % Injury BYG: 0%
[4]; Herb. No. 1 0.14 kg/ha + antidote 2.24 kg/ha
  % Injury Corn: 5%
[4]; [15]
  % Injury Corn: 5%
[5]
  % Injury Corn: 5%
[6]; [16]
  % Injury BYG: 95%
[6]; [17]
  % Injury BYG: 90%
[6]; Herb. No. 1 6.72 kg/ha + antidote 0.56 kg/ha
  % Injury BYG: 90%
[6]; Herb. No. 1 6.72 kg/ha + antidote 2.24 kg/ha
  % Injury BYG: 90%
